# Data from patent US4224343A, “Process and composition for decreasing blood serum prolactin levels” (Massachusetts Institute of Technology, priority 1979, dated 1980).
# Several values for one entry are separate records, joined by “and”; a condition that tells them apart may be missing. Identical values can stand only once. Like-named read-outs stand apart in the source and are kept apart here.
# Assays:
# brain dopamine release = experiment: Accumulation of HVA in corpora striata of rats given haloperidol or probenecid after tyrosine (FIG. 2); conditions: for striatal HVA concentration: tyrosine 100 mg/kg or diluent, 20 min later haloperidol 2 mg/kg or probenecid 200 mg/kg i.p., sacrificed 70 min after second injection, corpora striata
# Procedure: Male, 150 to 200 g Sprague-Dawley rats (Charles River Breeding Laboratories, Wilmington, MA) were exposed to light (Vita-Lite, Duro-Test Co., North Bergen, N.J.) between 9 AM and 9 PM daily and allowed access to Big Red Rat Chow (Charles River Breeding Laboratories) and water ad limitum. Drugs were injected intraperitoneally at a volume of 2 ml/kg body weight. […] Control animals received the appropriate diluents. […] Brains were quickly removed, and the striata were dissected out (Glowinski and Iverson, 1966), frozen on dry ice, and subsequently assayed for HVA. Tyrosine was assayed in homogenates of the remaining brain (Waalkes and Udenfriend, 1957).
# [1] = target: T1, Striatal Tyrosine Hydroxylase (Rattus norvegicus, UniProt P04177); experiment: Kms of striatal tyrosine hydroxylase after in vivo pretreatment; assay type: biochemical; conditions: for Km: striatal homogenate of treated rats
# T1 construct: 10,000 g supernatant of Triton X-100 homogenate of rat corpus striatum
# Procedure: Corpora striata were homogenized in 10 volumes of 0.05 M Tris-acetate buffer (pH 6.0), containing 0.2 percent Triton X-100 (Harleco, Philadelphia, PA). The homogenates were centrifuged for 10 min. at 10,000 g, and the supernatant fluids were collected for assay (Coye, 1972). The assay medium contained, in a total volume of 110 μl: 50 μl of a supernatant fluid; 65 nmoles of DMPH4 (2-amino-4-hydroxy-6,7-dimethyl-5,6,7,8-tetrahydropteridine hydrochloride [synthetic cofactor obtained from Calbiochem, San Diego, CA]); 29 nanomoles of pyridoxal phosphate; 4 nanomoles of 2-mercaptoethanol; 240 units of catalase; 0.01 millimoles phosphate buffer (pH 6.2); and 10 μl of aromatic L-amino acid decarboxylase prepared from hog kidneys (Coyle, 1972). Samples were preincubated for 2 min. at 27° C.
# The assay was stopped by the addition of 0.5 ml of 10 percent trichloroacetic acid. The acidified medium was then shaken for 2 hours to recover the ^14 CO2, which was trapped by folded filter paper strips placed in 0.2 ml of NCS tissue solubilizer (Amersham/Searle, Arlington Heights, IL). The strips were then transferred to scintillation vials containing 10 ml of Aquasol (New England Nuclear, Boston, MA), and their radioactivity was counted.
# [2] = system: Norepinephrine synthesis and turnover in brain neurons; experiment: Accumulation of brain MOPEG-SO4 after probenecid administration and pretreatment with tyrosine; conditions: for Brain MOPEG-SO4 Level / Brain Tyrosine Level: killed 60 min after second injection, whole brain, mean ± SEM; for effect on brain MOPEG-SO4: substance given alone, versus diluent; for effect on brain tyrosine levels: tyrosine 100 mg/kg i.p., probenecid 400 mg/kg, two-way analysis of variance
# Excerpt: (§1) Male Sprague-Dawley rats (Charles River Breeding Laboratories, Wilmington, MA) weighing 150 g were housed in hanging cages (6-8 per cage), given ad libitum access to tap water and a 26% protein diet (Charles River Rat-Mouse-Hamster Maintenance Formula 24RF), and maintained under light (300 microwatts/cm^2; Vita-Lite, Duro-Test Corp., North Bergen, N.J.) between 8 AM and 8 PM daily. Rats used for diet experiments were fasted overnight and then allowed to consume the experimental diet starting at 10 AM. Diets of different compositions were prepared in agar gel ([…] of water) as described by Gibson et al., Biochem. Pharmacol., 26, 1137-1142 (1977). All amino acids and drugs were injected intraperitoneally.
# (§2) Norepinephrine synthesis and turnover in brain neurons were estimated by measuring the rate of accumulation of MOPEG-SO4 after probenecid administration or exposure to a cold environment. […] An aliquot of each homogenate (in 0.15 M ZnSO4) was first assayed for tyrosine by the method of Waalkes and Undenfriend, J. Lab. Clin. Med., 50, 733-736 (1957). An equal volume of 0.15 M barium hydroxide was then added to the remaining homogenate, which was rehomogenized (Polytron, Brinkman Instruments, N.Y.), centrifuged and assayed for MOPEG-SO4 by the method of Meek and Neff above.
# Tyrosine (Grand Island Biological Co., Long Island, N.Y.) and probenecid (Sigma Chemical Co., St. Louis, MO), which are poorly soluble in water, were dissolved in dilute NaOH; the solutions were then buffered to pH 7.4 with hydrochloric acid and brought to a known volume with saline. This yielded a fine suspension that was suitable for injection.
# In each of 3 experiments, groups of 4-6 rats were injected with either a
# dose of tyrosine (100 mg/kg, i.p.) known to accelerate brain dopa
# synthesis or its diluent and, 30 min. later, with probenecid (400 mg/kg,
# […].) or its diluent. Animals were killed 60 min. after the second
# injection, and their whole brains were analyzed for tyrosine and […]
# [3] = system: Norepinephrine synthesis and turnover in brain neurons; experiment: Brain tyrosine and MOPEG-SO4 in rats exposed to cold (4° C.) after amino acid injection (FIG. 1)
# Excerpt: as §1, §2
# In experiments on stress produced by exposure to cold, animals received the more soluble ethyl-ester form of tyrosine (J. T. Baker, Phillipsburg, N.J.), instead of tyrosine itself, to raise brain tyrosine levels. Data were analyzed by one-way or two-way analysis of variance.
# Placing the rats in a cold environment (4° C.) increases norepinephrine turnover; this accelerates the formation of both norepinephrine itself and its metabolite, MOPEG-SO4, in brain neurons. The rats were exposed to cold to determine whether treatments that changed brain tyrosine levels could influence the rate at which the brain accumulates MOPEG-SO4 in rats exposed to cold stress and not given probenecid (FIG. 1).
# The relationship shown in FIG. 1 was obtained as follows: Groups of rats were injected intraperitoneally with valine (200 mg/kg), an amino acid that competes with tyrosine for uptake into the brain (8), or with tyrosine (125 mg/kg of the ethyl ester) or saline; 30 min. later they were placed in single cages in a cold (4° C.) environment. After 1 hr., all animals were killed, and their whole brains were analyzed for tyrosine and MOPEG-SO4. Control animals were injected with saline and left at room temperature (22° C.), also in a single cages, for 90 min. Each point represents the tyrosine and MOPEG-SO4 levels present in a single brain. Data were pooled from several experiments. […] In FIG. 1, the symbols are as follows: closed circles, animals pretreated with valine; open circles, animals pretreated with saline; closed squares, animals pretreated with tyrosine.
# Serum Prolactin = experiment: Serum prolactin by radioimmunoassay in reserpine-treated rats; assay type: in vivo, rat
# Procedure: Groups of 4 male rats received reserpine (2.5 mg/kg/day, divided into two equal doses each day) intraperitoneally for four days. On day 5, in the morning, no reserpine was administered, but instead half of the animals received tyrosine (200 mg/kg) or the vehicle (saline), and were killed two hours later. Sera were collected and assayed by radioimmunoassay for prolactin.
# [4] = pretreatment (tyrosine 100 mg/kg i.p. or diluent), 30 min later probenecid 400 mg/kg
# [5] = pretreatment tyrosine 100 mg/kg i.p., 30 min later diluent
# [6] = tyrosine 125 mg/kg of the ethyl ester i.p., cold (4° C.) 1 hr
# T1 sequence (P04177 whole entry): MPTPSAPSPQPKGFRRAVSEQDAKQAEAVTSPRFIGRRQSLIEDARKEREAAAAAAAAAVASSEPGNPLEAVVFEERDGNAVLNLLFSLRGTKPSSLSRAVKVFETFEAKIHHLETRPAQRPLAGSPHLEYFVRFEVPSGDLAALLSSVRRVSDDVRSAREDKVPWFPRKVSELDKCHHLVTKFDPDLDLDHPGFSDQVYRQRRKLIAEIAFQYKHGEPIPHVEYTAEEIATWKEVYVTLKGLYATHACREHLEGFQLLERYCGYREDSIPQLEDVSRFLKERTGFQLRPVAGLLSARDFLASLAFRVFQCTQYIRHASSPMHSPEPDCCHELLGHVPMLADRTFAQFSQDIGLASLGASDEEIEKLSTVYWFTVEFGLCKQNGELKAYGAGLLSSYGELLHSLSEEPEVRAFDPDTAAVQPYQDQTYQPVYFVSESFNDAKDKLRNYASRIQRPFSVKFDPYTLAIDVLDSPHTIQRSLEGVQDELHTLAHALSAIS
compound,measurement,setting,value
"O=C(CCCN1CCC(O)(c2ccc(Cl)cc2)CC1)c1ccc(F)cc1 [Haloperidol, haloperidol]",striatal HVA concentration,brain dopamine release,2.00 ± 0.10 µg/g
same,Km,"[1]; DMPH4 concentrations 0.1 to 0.5 mM, read-out: Km for DMPH4",130 ± 10 µM
same,Km,"[1]; tyrosine concentrations 0.125-1.0 mM, read-out: Km for tyrosine",48.1 ± 1.9 µM
"CCCN(CCC)S(=O)(=O)c1ccc(C(=O)O)cc1 [Probenecid, probenecid, reference compound]",Brain MOPEG-SO4 Level,[2]; [4],175 ng/g and 175 ± 6 ng/g
same,effect on brain MOPEG-SO4,[2],significantly raised
same,effect on brain tyrosine levels,[2],failed to modify
same,striatal HVA concentration,brain dopamine release,1.30 ± 0.10 µg/g
"N[C@@H](Cc1ccc(O)cc1)C(=O)O [Tyrosine, tyrosine]",Brain MOPEG-SO4 Level,[2]; [4],203 ng/g and 203 ± 8 ng/g
same,Brain Tyrosine Level,[2]; [4],24.7 ± 1.3 µg/g
same,Brain MOPEG-SO4 Level,[2]; [5],127 ± 2 ng/g
same,Brain Tyrosine Level,[2]; [5],23.3 ± 1.5 µg/g
same,effect on brain MOPEG-SO4,[2],no effect
same,effect of tyrosine pretreatment on the probenecid-induced rise in MOPEG-SO4,[2]; tyrosine 100 mg/kg i.p. 30 min before probenecid 400 mg/kg,significantly enhanced
same,effect on brain tyrosine levels,[2],significantly raised
same,brain tyrosine levels,"[3]; i.p. injection (tyrosine 125 mg/kg of the ethyl ester; valine 200 mg/kg) 30 min before 1 hr in cold (4° C.), whole brain",24.6 µg/g
same,brain MOPEG-SO4 levels,"[3]; tyrosine 125 mg/kg of the ethyl ester i.p. 30 min before 1 hr in cold (4° C.), whole brain",193 ng/g
same,rise in brain MOPEG-SO4 versus saline-injected animals,[3]; [6],70%
same,rise in brain tyrosine levels versus saline-injected animals,[3]; [6],about 80%
same,Serum Prolactin,"Serum Prolactin; male rats, reserpine […] i.p. for four days, day 5 tyrosine 200 mg/kg, killed two hours later, mean ± standard error",44 ± 2 ng/mL
same,effect on serum prolactin levels,"Serum Prolactin; reserpine-pretreated rats, tyrosine 200 mg/kg",lowers serum prolactin levels
same,potentiation of the accumulation of HVA in striata of haloperidol-treated rats,brain dopamine release; tyrosine 100 mg/kg 20 min before haloperidol 2 mg/kg,59%
same,effect on HVA levels in animals given probenecid,brain dopamine release; tyrosine 100 mg/kg 20 min before probenecid 200 mg/kg,failed
same,effect of prior administration on the Kms of tyrosine hydroxylase for tyrosine or DMPH4 in vitro,[1]; tyrosine 100 mg/kg in vivo,failed to affect
"CC(C)[C@H](N)C(=O)O [valine, reference compound]",effect on brain tyrosine or MOPEG-SO4 levels,"[3]; valine 200 mg/kg i.p., cold (4° C.) 1 hr","failed, in this study, to cause significant alterations"
